Measured values taken from PubChem BioAssay AID330 (DTP/NCI, 2004).
Values joined by “and” are separate entries in the source; they are usually repeats but may differ in a detail not shown here. Equal values may be shown once. Toxic doses and inconclusive results are not listed. How the source made its calls: active means survival T/C of 150% or more; inactive means T/C below 125% in these data. Peptide text beside a SMILES is read from it.

Tested on: P388 leukemia ip, CD2F1 mice, survival T/C
Test: NCI In Vivo Anticancer Drug Screen. Data for tumor model P388 Leukemia (intraperitoneal) in CD2F1 (CDF1) mice
Conditions: endpoint: median survival time, higher = longer survival
In short: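 Mice carrying the transplanted tumor received test compound or vehicle. Survival was recorded in each group, and the value is the treated-group measurement divided by that of the vehicle-treated control group.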

[1] = dose: 60.0 mg/kg/injection, schedule: Q01DX005 (ip), vehicle: saline with Tween-80
[2] = dose: 120.0 mg/kg/injection, schedule: Q01DX005 (ip), vehicle: saline with Tween-80
[3] = dose: 25.0 mg/kg/injection, schedule: Q01DX009 (ip), vehicle: saline with Tween-80
[4] = dose: 50.0 mg/kg/injection, schedule: Q01DX009 (ip), vehicle: saline with Tween-80
[5] = dose: 100.0 mg/kg/injection, schedule: Q01DX009 (ip), vehicle: saline with Tween-80
[6] = dose: 200.0 mg/kg/injection, schedule: Q01DX009 (ip), vehicle: saline with Tween-80
[7] = dose: 50.0 mg/kg/injection, schedule: Q01DX005 (ip), vehicle: saline
[8] = dose: 100.0 mg/kg/injection, schedule: Q01DX005 (ip), vehicle: saline
[9] = dose: 200.0 mg/kg/injection, schedule: Q01DX005 (ip), vehicle: saline
[10] = dose: 240.0 mg/kg/injection, schedule: Q01DX005 (ip), vehicle: saline with Tween-80
[11] = dose: 100.0 mg/kg/injection, schedule: Q04DX003 (ip), vehicle: saline
[12] = dose: 200.0 mg/kg/injection, schedule: Q04DX003 (ip), vehicle: saline
[13] = dose: 25.0 mg/kg/injection, schedule: Q01DX005 (ip), vehicle: Klucel (hydroxypropylcellulose) (HPC)

Measured: T/C

Cc1ccc(S(=O)(=O)F)cc1C(=O)O
inactive: [1] 101 % of control | [2] 93 % of control

CC(=O)CC(c1ccccc1)C(C#N)c1ccccc1 (stereo not drawn)
inactive: dose: 12.5 mg/kg/injection, schedule: Q04DX003 (ip), vehicle: Klucel (hydroxypropylcellulose) (HPC) 118 % of control | dose: 25.0 mg/kg/injection, schedule: Q04DX003 (ip), vehicle: Klucel (hydroxypropylcellulose) (HPC) 106 % of control | dose: 50.0 mg/kg/injection, schedule: Q04DX003 (ip), vehicle: Klucel (hydroxypropylcellulose) (HPC) 106 % of control

CCOC(=O)N1CCc2nc3ccc(Cl)cc3cc21
inactive: [3] 117 % of control | [4] 98 % of control | [5] 99 % of control | [6] 108 % of control

[Se]=P(N1CCOCC1)(N1CCOCC1)N1CCOCC1
inactive: dose: 13.75 mg/kg/injection, schedule: Q01DX001 (ip), vehicle: Klucel (hydroxypropylcellulose) (HPC) 101 % of control | dose: 27.5 mg/kg/injection, schedule: Q01DX001 (ip), vehicle: Klucel (hydroxypropylcellulose) (HPC) 104 % of control

CC(C)C(N)C(=O)NC(C(=O)O)C(C)C (stereo not drawn)
inactive: dose: 6.25 mg/kg/injection, schedule: Q01DX005 (ip), vehicle: saline 95 % of control | dose: 12.5 mg/kg/injection, schedule: Q01DX005 (ip), vehicle: saline 95 % of control | dose: 25.0 mg/kg/injection, schedule: Q01DX005 (ip), vehicle: saline 96 % of control | [7] 98 % of control | [8] 88 % of control and 104 % of control | [9] 100 % of control

CC1CCC23C1CC(CC(=O)C2(C)O)C3(C)C (stereo not drawn)
inactive: [1] 100 % of control | [2] 97 % of control | [10] 106 % of control

CS/C(=C1/C(=O)N(c2ccccc2)N=C1c1ccc(C)cc1)N1CC1
inactive: dose: 100.0 mg/kg/injection, schedule: Q04DX003 (ip), vehicle: Klucel (hydroxypropylcellulose) (HPC) 91 % of control | dose: 200.0 mg/kg/injection, schedule: Q04DX003 (ip), vehicle: Klucel (hydroxypropylcellulose) (HPC) 94 % of control | dose: 400.0 mg/kg/injection, schedule: Q04DX003 (ip), vehicle: Klucel (hydroxypropylcellulose) (HPC) 94 % of control

C1CC2CC3CCCCN3COC2C1 (stereo not drawn)
inactive: [11] 102 % of control | [12] 118 % of control

C/C(=C/C(=O)Nc1ccccc1)Nc1onc(C)c1C
inactive: [1] 102 % of control | [2] 96 % of control | [10] 90 % of control

Clc1ccc(COCc2ccccc2Cn2ccnc2)cc1
inactive: [1] 95 % of control | [2] 99 % of control

CC([NH-])C[NH-].O=S(=O)(O)O.[Pt+2] (stereo not drawn)
active: dose: 3.12 mg/kg/injection, schedule: Q04DX002 (ip), vehicle: saline 154 % of control
inactive: dose: 12.5 mg/kg/injection, schedule: Q04DX002 (ip), vehicle: saline 90 % of control and 118 % of control

CCOC(=O)c1cnc(NCCCNc2ncc(C(=O)OCC)c(=O)[nH]2)[nH]c1=O
inactive: dose: 6.25 mg/kg/injection, schedule: Q01DX005 (ip), vehicle: Klucel (hydroxypropylcellulose) (HPC) 92 % of control | dose: 12.5 mg/kg/injection, schedule: Q01DX005 (ip), vehicle: Klucel (hydroxypropylcellulose) (HPC) 101 % of control | [13] 104 % of control | dose: 50.0 mg/kg/injection, schedule: Q01DX005 (ip), vehicle: Klucel (hydroxypropylcellulose) (HPC) 105 % of control | dose: 100.0 mg/kg/injection, schedule: Q01DX005 (ip), vehicle: Klucel (hydroxypropylcellulose) (HPC) 106 % of control | dose: 200.0 mg/kg/injection, schedule: Q01DX005 (ip), vehicle: Klucel (hydroxypropylcellulose) (HPC) 88 % of control

CSCCC(N)C(=O)NC(CC(N)=O)C(=O)O (stereo not drawn) (H-Met-Asn-OH; configuration not given here)
inactive: [7] 98 % of control | [8] 101 % of control | [9] 99 % of control

CCN=NNc1ccc([N+](=O)[O-])cc1
inactive: dose: 12.5 mg/kg/injection, schedule: Q01DX009 (ip), vehicle: distilled water + Tween-80 95 % of control | dose: 25.0 mg/kg/injection, schedule: Q01DX009 (ip), vehicle: distilled water + Tween-80 100 % of control | dose: 50.0 mg/kg/injection, schedule: Q01DX009 (ip), vehicle: distilled water + Tween-80 105 % of control | dose: 100.0 mg/kg/injection, schedule: Q01DX009 (ip), vehicle: distilled water + Tween-80 100 % of control | dose: 200.0 mg/kg/injection, schedule: Q01DX009 (ip), vehicle: distilled water + Tween-80 112 % of control

COc1ccc2ccccc2c1/C=[N+](/[O-])c1ccccc1
inactive: dose: 60.0 mg/kg/injection, schedule: Q01DX005 (ip), vehicle: Klucel (hydroxypropylcellulose) (HPC) 109 % of control | dose: 120.0 mg/kg/injection, schedule: Q01DX005 (ip), vehicle: Klucel (hydroxypropylcellulose) (HPC) 110 % of control | dose: 240.0 mg/kg/injection, schedule: Q01DX005 (ip), vehicle: Klucel (hydroxypropylcellulose) (HPC) 112 % of control

Cl[C](Cl)(Cl)[Hg][c]1ccccc1
inactive: dose: 1.5 mg/kg/injection, schedule: Q01DX009 (ip), vehicle: saline with Tween-80 98 % of control | dose: 3.0 mg/kg/injection, schedule: Q01DX009 (ip), vehicle: saline with Tween-80 99 % of control | dose: 6.0 mg/kg/injection, schedule: Q01DX009 (ip), vehicle: saline with Tween-80 114 % of control | dose: 12.0 mg/kg/injection, schedule: Q01DX009 (ip), vehicle: saline with Tween-80 89 % of control

CCC12OCCN1CCO2
inactive: dose: 200.0 mg/kg/injection, schedule: Q01DX009 (ip), vehicle: water 100 % of control | dose: 400.0 mg/kg/injection, schedule: Q01DX009 (ip), vehicle: water 100 % of control | dose: 800.0 mg/kg/injection, schedule: Q01DX009 (ip), vehicle: water 102 % of control | dose: 1600.0 mg/kg/injection, schedule: Q01DX009 (ip), vehicle: water 106 % of control

C=CCOc1cc2c(cc1C(C)c1ccc(OC)cc1)OCO2 (stereo not drawn)
inactive: [13] 104 % of control and 116 % of control | dose: 100.0 mg/kg/injection, schedule: Q01DX005 (ip), vehicle: saline with Tween-80 100 % of control and 109 % of control | dose: 200.0 mg/kg/injection, schedule: Q01DX005 (ip), vehicle: saline with Tween-80 106 % of control and 112 % of control | dose: 500.0 mg/kg/injection, schedule: Q01DX001 (ip), vehicle: saline with Tween-80 96 % of control | dose: 1000.0 mg/kg/injection, schedule: Q01DX001 (ip), vehicle: saline with Tween-80 122 % of control
active: dose: 200.0 mg/kg/injection, schedule: Q01DX005 (ip), vehicle: Klucel + Tween-80 202 % of control | dose: 800.0 mg/kg/injection, schedule: Q01DX005 (ip), vehicle: saline with Tween-80 184 % of control

CCCCC[N+]1(CC)CCCCC1
inactive: dose: 3.12 mg/kg/injection, schedule: Q01DX009 (ip), vehicle: saline 104 % of control | dose: 6.25 mg/kg/injection, schedule: Q01DX009 (ip), vehicle: saline 106 % of control | dose: 12.5 mg/kg/injection, schedule: Q01DX009 (ip), vehicle: saline 104 % of control

CN1C(c2ccccc2)C2CCCC(C1c1ccccc1)C21NC(=O)NC1=O (stereo not drawn)
inactive: dose: 100.0 mg/kg/injection, schedule: Q01DX001 (ip), vehicle: saline with Tween-80 97 % of control | dose: 200.0 mg/kg/injection, schedule: Q01DX001 (ip), vehicle: saline with Tween-80 94 % of control | dose: 400.0 mg/kg/injection, schedule: Q01DX001 (ip), vehicle: saline with Tween-80 94 % of control

CC1(C)N=C(N)N=C(N)N1c1ccc(CCc2ccccc2)cc1
inactive: dose: 37.5 mg/kg/injection, schedule: Q04DX003 (ip), vehicle: saline with Tween-80 87 % of control | dose: 75.0 mg/kg/injection, schedule: Q04DX003 (ip), vehicle: saline with Tween-80 100 % of control | [11] 120 % of control | [12] 100 % of control

NC(N)=NS(=O)(=O)c1ccc([N+](=O)[O-])cc1
inactive: dose: 12.5 mg/kg/injection, schedule: Q01DX009 (ip), vehicle: saline with Tween-80 103 % of control | [3] 107 % of control | [4] 111 % of control

CC1(C)N=C(N)N=C(N)N1c1cc(C(F)(F)F)cc(C(F)(F)F)c1
inactive: dose: 7.5 mg/kg/injection, schedule: Q01DX005 (ip), vehicle: Klucel (hydroxypropylcellulose) (HPC) 99 % of control | dose: 15.0 mg/kg/injection, schedule: Q01DX005 (ip), vehicle: Klucel (hydroxypropylcellulose) (HPC) 94 % of control | dose: 30.0 mg/kg/injection, schedule: Q01DX005 (ip), vehicle: Klucel (hydroxypropylcellulose) (HPC) 105 % of control

CC(=O)OC1CC2CCC1(/C=C/C(=O)c1ccccc1)C2 (stereo not drawn)
inactive: [4] 100 % of control | [5] 100 % of control | [6] 113 % of control
